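Exposure lasted 48 hours, with cells grown in 96-well plates and compounds tested at five concentrations. Abbreviation: GI50, concentration required for 50% inhibition of growth. TGI denotes the concentration required for complete inhibition of growth.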
Tests used:
Experiment in all cases: NCI anticancer screen, dose series, 48 h
786-0 renal = tested on: 786-0 renal
A498 renal = tested on: A498 renal
A549 NSCLC = tested on: A549 NSCLC
ACHN renal = tested on: ACHN renal
BT-549 breast = tested on: BT-549 breast
CAKI-1 renal = tested on: CAKI-1 renal
CCRF-CEM leukemia = tested on: CCRF-CEM leukemia
COLO 205 colon = tested on: COLO 205 colon
DU-145 prostate = tested on: DU-145 prostate
HCC-2998 colon = tested on: HCC-2998 colon
HCT-116 colon = tested on: HCT-116 colon
HCT-15 colon = tested on: HCT-15 colon
HL-60(TB) leukemia = tested on: HL-60(TB) leukemia
HOP-62 NSCLC = tested on: HOP-62 NSCLC
HOP-92 NSCLC = tested on: HOP-92 NSCLC
HS 578T breast = tested on: HS 578T breast
HT29 colon = tested on: HT29 colon
IGROV1 ovarian = tested on: IGROV1 ovarian
K-562 leukemia = tested on: K-562 leukemia
KM12 colon = tested on: KM12 colon
LOX IMVI melanoma = tested on: LOX IMVI melanoma
M14 melanoma = tested on: M14 melanoma
MALME-3M melanoma = tested on: MALME-3M melanoma
MCF7 breast = tested on: MCF7 breast
MDA-MB-231 breast = tested on: MDA-MB-231 breast
MDA-MB-435 = tested on: MDA-MB-435
MOLT-4 leukemia = tested on: MOLT-4 leukemia
NCI-H226 lung = tested on: NCI-H226 lung
NCI-H23 lung = tested on: NCI-H23 lung
NCI-H460 lung = tested on: NCI-H460 lung
NCI-H522 lung = tested on: NCI-H522 lung
NCI/ADR-RES ovarian = tested on: NCI/ADR-RES ovarian
OVCAR-3 ovarian = tested on: OVCAR-3 ovarian
OVCAR-4 ovarian = tested on: OVCAR-4 ovarian
OVCAR-5 ovarian = tested on: OVCAR-5 ovarian
OVCAR-8 ovarian = tested on: OVCAR-8 ovarian
PC-3 prostate = tested on: PC-3 prostate
RPMI-8226 leukemia = tested on: RPMI-8226 leukemia
RXF 393 renal = tested on: RXF 393 renal
SF-268 CNS = tested on: SF-268 CNS
SF-295 CNS = tested on: SF-295 CNS
SF-539 CNS = tested on: SF-539 CNS
SK-MEL-2 melanoma = tested on: SK-MEL-2 melanoma
SK-MEL-28 melanoma = tested on: SK-MEL-28 melanoma
SK-MEL-5 melanoma = tested on: SK-MEL-5 melanoma
SK-OV-3 ovarian = tested on: SK-OV-3 ovarian
SN12C renal = tested on: SN12C renal
SNB-19 CNS = tested on: SNB-19 CNS
SNB-75 CNS = tested on: SNB-75 CNS
SR leukemia = tested on: SR leukemia
SW-620 colon = tested on: SW-620 colon
T-47D breast = tested on: T-47D breast
TK-10 renal = tested on: TK-10 renal
U251 CNS = tested on: U251 CNS
UACC-257 melanoma = tested on: UACC-257 melanoma
UACC-62 melanoma = tested on: UACC-62 melanoma
UO-31 renal = tested on: UO-31 renal

Work on Fc1ccc2nc(-c3cc(-c4ccc5c(c4)OCO5)n[nH]3)[nH]c2c1 yielded a GI50 (786-0 renal) of 5.89 µM, a TGI (786-0 renal) greater than 80 µM and a GI50 (A498 renal) of 3.27 µM. The TGI (A498 renal) was greater than 100 µM, the GI50 (A549 NSCLC) was 2.51 µM and the TGI (A549 NSCLC) was 13.8 µM. The GI50 (ACHN renal) was 2.74 µM, the TGI (ACHN renal) was greater than 25.4 µM and the GI50 (BT-549 breast) was 1.48 µM. It also gave a TGI (BT-549 breast) greater than 25.9 µM, a GI50 (CAKI-1 renal) of 2.44 µM and a TGI (CAKI-1 renal) greater than 55.7 µM. The GI50 (CCRF-CEM leukemia) was 2.62 µM, the TGI (CCRF-CEM leukemia) was greater than 44.7 µM and the GI50 (COLO 205 colon) was 9.22 µM. It also gave a TGI (COLO 205 colon) greater than 66.1 µM, a GI50 (DU-145 prostate) of 5.84 µM and a TGI (DU-145 prostate) greater than 53.1 µM. The GI50 (HCC-2998 colon) was 5.56 µM, the TGI (HCC-2998 colon) was greater than 72.8 µM and the GI50 (HCT-116 colon) was 3.51 µM. It also gave a TGI (HCT-116 colon) greater than 32.5 µM, a GI50 (HCT-15 colon) of 3.27 µM and a TGI (HCT-15 colon) greater than 42.4 µM. For the same compound, the GI50 (HL-60(TB) leukemia) was 3.09 µM, the TGI (HL-60(TB) leukemia) was 55.5 µM and the GI50 (HOP-62 NSCLC) was 5.44 µM. The TGI (HOP-62 NSCLC) was greater than 43.4 µM, the GI50 (HOP-92 NSCLC) was 1.87 µM and the TGI (HOP-92 NSCLC) was 8.79 µM. The GI50 (HS 578T breast) was 9.53 µM, the TGI (HS 578T breast) was greater than 100 µM and the GI50 (HT29 colon) was 5.06 µM. The TGI (HT29 colon) was greater than 37.8 µM, the GI50 (IGROV1 ovarian) was 3.79 µM and the TGI (IGROV1 ovarian) was greater than 100 µM. The GI50 (K-562 leukemia) was 4.35 µM, the TGI (K-562 leukemia) was greater than 100 µM and the GI50 (KM12 colon) was 2.49 µM. It also gave a TGI (KM12 colon) greater than 32 µM, a GI50 (LOX IMVI melanoma) of 2.18 µM and a TGI (LOX IMVI melanoma) of 10.4 µM. The GI50 (M14 melanoma) was 2.78 µM, the TGI (M14 melanoma) was greater than 32.5 µM and the GI50 (MALME-3M melanoma) was 2.75 µM. For the same compound, the TGI (MALME-3M melanoma) was greater than 100 µM, the GI50 (MCF7 breast) was 3.84 µM and the TGI (MCF7 breast) was greater than 100 µM. It also gave a GI50 (MDA-MB-231 breast) of 2.01 µM, a TGI (MDA-MB-231 breast) of 6.59 µM and a GI50 (MDA-MB-435) of 4.49 µM. It also gave a TGI (MDA-MB-435) greater than 71.7 µM, a GI50 (MOLT-4 leukemia) of 2.56 µM and a TGI (MOLT-4 leukemia) greater than 69.4 µM. It also gave a GI50 (NCI-H226 lung) of 3.92 µM, a TGI (NCI-H226 lung) of 40.5 µM and a GI50 (NCI-H23 lung) of 6.58 µM. It also gave a TGI (NCI-H23 lung) greater than 93.8 µM, a GI50 (NCI-H460 lung) of 4.22 µM and a TGI (NCI-H460 lung) greater than 40.2 µM. The GI50 (NCI-H522 lung) was 2.61 µM, the TGI (NCI-H522 lung) was 13 µM and the GI50 (NCI/ADR-RES ovarian) was 3.99 µM. The TGI (NCI/ADR-RES ovarian) was greater than 100 µM, the GI50 (OVCAR-3 ovarian) was 3.29 µM and the TGI (OVCAR-3 ovarian) was 18.3 µM. For the same compound, the GI50 (OVCAR-4 ovarian) was 1.37 µM, the TGI (OVCAR-4 ovarian) was 4.8 µM and the GI50 (OVCAR-5 ovarian) was 35.5 µM. For the same compound, the TGI (OVCAR-5 ovarian) was greater than 100 µM, the GI50 (OVCAR-8 ovarian) was 2.99 µM and the TGI (OVCAR-8 ovarian) was 16 µM. It also gave a GI50 (PC-3 prostate) of 3.61 µM, a TGI (PC-3 prostate) greater than 82.3 µM and a GI50 (RPMI-8226 leukemia) of 1.17 µM. The TGI (RPMI-8226 leukemia) was 8.26 µM, the GI50 (RXF 393 renal) was 2.81 µM and the TGI (RXF 393 renal) was 32.1 µM. The GI50 (SF-268 CNS) was 5.22 µM, the TGI (SF-268 CNS) was greater than 54.9 µM and the GI50 (SF-295 CNS) was 4.99 µM. It also gave a TGI (SF-295 CNS) greater than 81.3 µM, a GI50 (SF-539 CNS) of 3.24 µM and a TGI (SF-539 CNS) of 31.2 µM. The GI50 (SK-MEL-2 melanoma) was 2.87 µM, the TGI (SK-MEL-2 melanoma) was 17.1 µM and the GI50 (SK-MEL-28 melanoma) was 8.61 µM. The TGI (SK-MEL-28 melanoma) was 53.2 µM, the GI50 (SK-MEL-5 melanoma) was 1.56 µM and the TGI (SK-MEL-5 melanoma) was 3.14 µM. It also gave a GI50 (SK-OV-3 ovarian) of 7.95 µM, a TGI (SK-OV-3 ovarian) of 26.5 µM and a GI50 (SN12C renal) of 4.59 µM. It also gave a TGI (SN12C renal) greater than 100 µM, a GI50 (SNB-19 CNS) greater than 32.5 µM and a TGI (SNB-19 CNS) greater than 100 µM. For the same compound, the GI50 (SNB-75 CNS) was 2.8 µM, the TGI (SNB-75 CNS) was 13.8 µM and the GI50 (SR leukemia) was 3.58 µM. For the same compound, the TGI (SR leukemia) was greater than 100 µM, the GI50 (SW-620 colon) was 5.68 µM and the TGI (SW-620 colon) was greater than 43.1 µM. For the same compound, the GI50 (T-47D breast) was 3.31 µM, the TGI (T-47D breast) was 52.1 µM and the GI50 (TK-10 renal) was 7.3 µM. The TGI (TK-10 renal) was greater than 45.1 µM, the GI50 (U251 CNS) was 2.49 µM and the TGI (U251 CNS) was greater than 35.8 µM. For the same compound, the GI50 (UACC-257 melanoma) was 8.91 µM, the TGI (UACC-257 melanoma) was greater than 100 µM and the GI50 (UACC-62 melanoma) was 4.37 µM. The TGI (UACC-62 melanoma) was greater than 52.2 µM, the GI50 (UO-31 renal) was 2.5 µM and the TGI (UO-31 renal) was greater than 24 µM.

From PubChem BioAssay (NCI)
